From ChEMBL document CHEMBL1146082, “Development of a structural model for NF-kappaB inhibition of sesquiterpene lactones using self-organizing neural networks” (J Med Chem, 2006)

Target: Transcription factor p65 (Homo sapiens) (UniProt Q04206)
Assay: Inhibition of NF-kappaB DNA binding by EMSA

Transcription factor p65 (Homo sapiens), sequence (Q04206 whole entry): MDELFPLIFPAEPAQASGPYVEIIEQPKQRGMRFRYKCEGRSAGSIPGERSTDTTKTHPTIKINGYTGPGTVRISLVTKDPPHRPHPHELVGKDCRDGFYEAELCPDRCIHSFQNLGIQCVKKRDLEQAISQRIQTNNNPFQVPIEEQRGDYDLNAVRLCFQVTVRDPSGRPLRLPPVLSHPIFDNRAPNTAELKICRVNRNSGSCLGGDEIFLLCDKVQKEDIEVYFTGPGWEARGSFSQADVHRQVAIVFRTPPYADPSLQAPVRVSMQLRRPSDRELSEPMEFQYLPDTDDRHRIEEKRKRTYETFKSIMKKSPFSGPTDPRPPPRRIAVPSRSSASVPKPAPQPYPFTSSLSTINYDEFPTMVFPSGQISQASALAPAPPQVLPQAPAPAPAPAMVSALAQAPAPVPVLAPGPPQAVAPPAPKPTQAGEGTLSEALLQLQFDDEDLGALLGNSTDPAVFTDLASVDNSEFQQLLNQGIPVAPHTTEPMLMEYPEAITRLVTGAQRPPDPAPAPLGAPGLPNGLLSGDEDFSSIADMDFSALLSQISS

| SMILES | IC100 [µM] |
| --- | --- |
| C=C(C)C(=O)O[C@@H]1C[C@](C)(O)[C@@H]2C(=O)C=C(C)[C@@H]2[C@H]2OC(=O)C(=C)[C@@H]21 | 50 |
| C=C[C@]1(C)CC[C@H]2C(=C)C(=O)O[C@@H]2[C@H]1C(=C)C | 100 |
| C=C1C(=O)O[C@@H]2C[C@@]3(C)CC(=O)C(OC(C)=O)=C(C)C3C[C@H]12 (stereo partly specified) | 100 |
| C=C1C(=O)O[C@@H]2/C=C(/C)[C@]3(O)O[C@](C)(C[C@@H](OC(=O)C(C)C)[C@@H]12)C(=O)[C@@H]3OC | 200 |
| C=C1C(=O)O[C@H]2C/C(CO)=C/CC/C(COC(=O)C(C)(C)O)=C/C[C@H]12 | 50 |
| C=C(C)C(=O)O[C@@H]1/C=C(\C=O)CCC[C@@]2(CO2)[C@H](O)[C@H]2OC(=O)C(=C)[C@@H]21 | 5 |
| C=C1C(=O)O[C@@H]2/C=C(\COC(=O)C(C)C)CC/C=C(\CO)C(=O)C[C@@H]12 | 12.5 |
| C=C1C(=O)O[C@H]2C[C@]3(C)O[C@@H]3C[C@@H](OC(C)=O)C3=C[C@@H](OC3=O)[C@H]12 | 10 |
| C=C1C(=O)O[C@@H]2/C=C(/CO)[C@@]3(O)C[C@@H](O)[C@@](C)(C[C@@H](OC(=O)/C(C)=C\C)[C@@H]12)O3 | 20 |
| C=C1C(=O)C[C@H]2C(=C)C(=O)O[C@@H]2/C=C(\COC(=O)C(C)C)CC[C@@H]1OC | 25 |
| C=C1C(=O)O[C@@H]2C[C@@H](C)[C@@H]3[C@@H](OC(C)=O)C[C@@H](O)[C@@]3(C)[C@@H](O)[C@H]12 | 200 |
| C=C1C(=O)C[C@H]2C(=C)C(=O)O[C@@H]2/C=C(\COC(=O)C(C)C)CC[C@H]1OC | 25 |
| C=C1C(=O)O[C@H]2C[C@H](C)C3=CC(=O)[C@H](C)C3C[C@H]12 (stereo partly specified) | 20 |
| C=C(CO)C(=O)OC/C1=C\C[C@@H]2C(=C)C(=O)O[C@H]2C/C(COC(C)=O)=C/CC1 | 50 |
| C=C(C)C(=O)O[C@H]1[C@@H]2[C@H](C)C(=O)O[C@@H]2C[C@@H](C)[C@@H]2C=CC(=O)[C@]21C | 100 |
| C=C1C(=O)O[C@@H]2C[C@H](C)C3=CC(=O)[C@H](C)[C@@H]3C[C@H]12 | 50 |
| C[C@H]1C(=O)O[C@H]2C/C(CO)=C/CC/C(CO)=C/C[C@@H]21 | 300 |
| C=C1C(=O)O[C@H]2C3=C(C(=O)C[C@@H]3C)[C@@H](C)CC[C@@H]12 | 20 |
| C=C1C(=O)O[C@H]2[C@H]1[C@H](OC(=O)[C@@]1(C)O[C@H]1C)[C@@H](OC(C)=O)/C(C(=O)OC)=C\CC[C@@]1(C)O[C@H]21 | 10 |
| C=C1[C@@H]2[C@H]3OC(=O)C(=C)[C@@H]3CC[C@](C)(O)[C@@H]2C[C@@H]1O | 200 |
| C[C@@H]1C[C@H]2OC(=O)[C@@H](C)[C@H]2[C@H](O)[C@]2(C)C(=O)C=C[C@@H]12 | 200 |
